The target in the test is T1, recombinant mouse NPY5-receptor (mNPY5) (Mus musculus, UniProt O70342).
T1 construct: The full-length cDNA encoding the mouse NPY5 (mNPY5) receptor was amplified from mouse brain cDNA; expressed in transfected cells; membrane preparation
T1 sequence (O70342 1-466): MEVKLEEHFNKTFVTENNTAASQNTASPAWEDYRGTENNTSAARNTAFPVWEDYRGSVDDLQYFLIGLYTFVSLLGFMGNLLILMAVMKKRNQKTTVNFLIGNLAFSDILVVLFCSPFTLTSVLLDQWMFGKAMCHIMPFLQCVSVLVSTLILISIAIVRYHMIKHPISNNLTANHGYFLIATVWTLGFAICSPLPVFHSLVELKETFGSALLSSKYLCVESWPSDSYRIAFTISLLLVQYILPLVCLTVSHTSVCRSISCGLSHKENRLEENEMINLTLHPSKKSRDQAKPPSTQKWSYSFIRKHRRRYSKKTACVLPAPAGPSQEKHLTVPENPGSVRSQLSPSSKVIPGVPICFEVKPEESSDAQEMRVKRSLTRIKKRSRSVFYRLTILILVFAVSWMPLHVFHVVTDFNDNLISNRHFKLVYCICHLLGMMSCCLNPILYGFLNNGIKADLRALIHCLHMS
The test is described as follows: Radioligand competition binding. The settings on record: membranes of HEK293 cells expressing mNPY5; 100 pM [125I]labelled peptide YY (PYY); 1 h at 22° C.; read-out: NPY5-R (mouse) IC50. The source says:
The full-length cDNA encoding the mouse NPY5 (mNPY5) receptor was amplified from mouse brain cDNA using specific primers, designed based on the published sequence, and Pfu DNA-Polymerase. The amplification product was subcloned into the mammalian expression vector pcDNA3 using Eco RI and XhoI restriction sites. Positive clones were sequenced and one clone, encoding the published sequence was selected for generation of stable cell clones.
Human embryonic kidney 293 (HEK293) cells were transfected with 10 μg mNPY5 DNA using the lipofectamine reagent. Two days after transfection, geneticin selection (1 mg/ml) was initiated and several stable clones were isolated. One clone was further used for pharmacological characterization.
Human embryonic kidney 293 cells (HEK293), expressing recombinant mouse NPY5-receptor (mNPY5) were broken by three freeze/thawing cycles in hypotonic Tris buffer (5 mM, pH 7.4, 1 mM MgCl2), homogenized and centrifuged at 72,000×g for 15 min. The pellet was washed twice with 75 mM Tris buffer, pH 7.4, containing 25 mM MgCl2 and 250 mM sucrose, 0.1 mM phenylmethylsulfonylfluoride and 0.1 mM 1,10-pheneanthrolin, resuspended in the same buffer and stored in aliquots at −80° C. Protein was determined according to the method of Lowry using bovine serum albumine (BSA) as a standard. […]
Background: Loss of bound radioactivity is the signal in a displacement assay; it reports binding, not function.
Regarding `Cc1ccccc1C(=O)c1cnc(NCC2CCN(S(=O)(=O)N(C)C)CC2)s1` [Example 18, 4-{[5-(2-Methyl-benzoyl)-thiazol-2-ylamino]-methyl}-piperidine-1-sulfonic acid dimethylamide], the IC50 is 0.85 nM. The figure for `CCc1ccccc1C(=O)c1cnc(NC2CCN(S(=O)(=O)c3cccs3)CC2)s1` [Example 32, (2-Ethyl-phenyl)-{2-[1-(thiophene-2-sulfonyl)-piperidin-4-ylamino]-thiazol-5-yl}-methanone] is 0.75 nM. Under `Cc1ccccc1C(=O)c1cnc(NC2CCN(S(=O)(=O)c3cccs3)CC2)s1` [Example 41, {2-[1-(Thiophene-2-sulfonyl)-piperidin-4-ylamino]-thiazol-5-yl}-o-tolyl-methanone] stands 0.77 nM.

The term IC50 denotes the point on the concentration scale where inhibition reaches its midpoint.
